The values that follow are results of earlier work, collected in patent publication US9775828B2, “Pharmaceutical composition with increased solubility by using saccharin” (University-Industry Foundation, Yonsei University, priority 2014, dated 2017).

For this data set the following is noted: when administered to the oral cavity and the nasal cavity.

Turning to `CN(C)CCc1c[nH]c2ccc(C[C@H]3COC(=O)N3)cc12` [Zolmitriptan, (S)-4-{{3-[2-(dimethylaminoethyl)]-1H-indol-5-1}methyl}-2-oxazolidinone], the bioavailability entry is “about 40%”.
